From PMC9414507, “Drug Repurposing Based on Protozoan Proteome: In Vitro Evaluation of In Silico Screened Compounds against Toxoplasma gondii” (Pharmaceutics, 2022)
Like-named read-outs stand apart in the source and are kept apart here.

Assays:
[1] = ref Pandemic Response Box and COVID Box supporting information; cited from earlier work
[2] = Cytotoxicity in mammalian cells (MTT assay); format: cell-based; conditions: human, read-out: CC50 (Half Cytotoxic Concentration against HFF cells)
Procedure: HFF were seeded at 5 × 10^4 cells/well in 96-well microplates and incubated overnight to adhere to the plate. After that, the cells were incubated in the presence of increasing concentrations of the compounds for 72 h at 37 °C in a 5% CO2 humidified incubator. The viability of the cells was determined by the MTT assay as previously described. The medium in each well was replaced by PBS (100 µL/well), MTT (5 mg/mL) was added (20 µL/well), and the plate was incubated for 4 h at 37 °C. […] HFF incubated in D2 without drug treatment were used as viability control. Viability of 100% was expressed based on the optical density of untreated HFF cells, after normalization.

Row | Compound | Rule of Five [1] | CC50 at 72 h ([2]; HFF) | CC50 at 72 h ([2]; HFF cells)
1 | COc1cccc2c1C(=O)c1c(O)c3c(c(O)c1C2=O)C[C@@](O)(C(=O)CO)C[C@@H]3O[C@H]1C[C@H](N)[C@H](O)[C@H](C)O1 [Doxorubicin] | 1 |  | 
2 | Nc1nc(F)nc2c1ncn2[C@@H]1O[C@H](CO)[C@@H](O)[C@@H]1O [Fludarabine] | 4 | 2140 nM | 
3 | C[C@H]1O[C@@H](O[C@H]2[C@@H](O)C[C@H](O[C@H]3[C@@H](O)C[C@H](O[C@H]4CC[C@@]5(C)[C@H](CC[C@@H]6[C@@H]5CC[C@]5(C)[C@@H](C7=CC(=O)OC7)CC[C@]65O)C4)O[C@@H]3C)O[C@@H]2C)C[C@H](O)[C@@H]1O [Digitoxin] | 2 |  | 
4 | CC(C)C[C@H](NC(=O)[C@H](Cc1ccccc1)NC(=O)c1cnccn1)B(O)O [Bortezomib] | 4 | 79 nM | 
5 | CCCC(CCC)C(=O)O [Valproic acid] | 4 |  | 
6 | C[C@H]1O[C@@H](O[C@H]2[C@@H](O)C[C@H](O[C@H]3[C@@H](O)C[C@H](O[C@H]4CC[C@@]5(C)[C@H](CC[C@@H]6[C@@H]5C[C@@H](O)[C@]5(C)[C@@H](C7=CC(=O)OC7)CC[C@]65O)C4)O[C@@H]3C)O[C@@H]2C)C[C@H](O)[C@@H]1O [Digoxin] | 1 |  | 
7 | COc1cc(Cc2cnc(N)nc2N)cc(OC)c1OC [Trimethoprim] | 4 |  | 
8 | C=CCNc1nc(NCC=C)nc(N2CCN(C(c3ccc(F)cc3)c3ccc(F)cc3)CC2)n1 [Almitrine] | 3 |  | > 20000 nM
9 | C[C@H]1COc2c(N3CCN(C)CC3)c(F)cc3c(=O)c(C(=O)O)cn1c23 [Levofloxacin] | 4 |  | 
10 | COc1c(C)c2c(c(O)c1C/C=C(\C)CCC(=O)O)C(=O)OC2 [Mycophenolic acid] | 4 |  | 
11 | NC(=O)c1ncn([C@@H]2O[C@H](CO)[C@@H](O)[C@H]2O)n1 [Ribavirin] | 4 |  | 
